Our source for the solubility (mole fraction) values is BigSolDB 2.1.

SMILES strings stand for the structures.

On to `CC[C@H](C)[C@H](N)C(=O)O` (racemic), for which the solubility (mole fraction) by setting is: (in DMF, 278.15 K) 0.00023; (in DMF, 283.15 K) 0.00024; (in DMF, 288.15 K) 0.00025; (in DMF, 293.15 K) 0.00026; (in DMF, 298.15 K) 0.00027; (in DMF, 303.15 K) 0.00028. Also, the solubility (mole fraction) reads like this: (in DMF, 308.15 K) 0.00029; (in DMF, 313.15 K) 0.0003; (in DMF, 318.15 K) 0.00031; (in water, 278.15 K) 0.0025; (in water, 283.15 K) 0.00269; (in water, 288.15 K) 0.0027. Also, the solubility (mole fraction) came to 0.0029 (in water, 293.15 K); 0.003 (in water, 298.15 K); 0.0032 (in water, 303.15 K); 0.0034 (in water, 308.15 K); 0.0036 (in water, 313.15 K); 0.0038 (in water, 318.15 K).

As for `CC(C)CC(N)C(=O)O` (racemic), the solubility (mole fraction) is, setting by setting: (in DMF, 278.15 K) 0.00011; (in DMF, 283.15 K) 0.00012; (in DMF, 288.15 K) 0.00014; (in DMF, 293.15 K) 0.00015; (in DMF, 298.15 K) 0.00017; (in DMF, 303.15 K) 0.00018. Besides, the solubility (mole fraction) is, setting by setting: (in DMF, 308.15 K) 0.0002; (in DMF, 313.15 K) 0.00021; (in DMF, 318.15 K) 0.00023; (in water, 278.15 K) 0.0011; (in water, 283.15 K) 0.00115; (in water, 288.15 K) 0.00124. For the same molecule, the solubility (mole fraction) was 0.00128 (in water, 293.15 K); 0.00135 (in water, 298.15 K); 0.00144 (in water, 303.15 K); 0.00155 (in water, 308.15 K); 0.00164 (in water, 313.15 K); 0.00178 (in water, 318.15 K).

A word on the solubility (mole fraction): it is the moles of solute divided by all moles in the saturated solution.
